Data reported in PubChem BioAssay (NCI).
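96-well plates; 48 h exposure; 5 concentrations. Endpoints by linear interpolation between flanking doses. Not reached: highest tested concentration assigned. TGI: concentration producing complete growth inhibition.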

Experiments:
Test in all cases: NCI tumour cell line growth inhibition, 48 h
A549 NSCLC = tested on: A549 NSCLC
HL-60(TB) leukemia = tested on: HL-60(TB) leukemia
KM12 colon = tested on: KM12 colon
M14 melanoma = tested on: M14 melanoma
NCI-H226 lung = tested on: NCI-H226 lung
NCI-H460 lung = tested on: NCI-H460 lung
NCI/ADR-RES ovarian = tested on: NCI/ADR-RES ovarian
OVCAR-8 ovarian = tested on: OVCAR-8 ovarian
SK-MEL-2 melanoma = tested on: SK-MEL-2 melanoma
RXF 393 renal = tested on: RXF 393 renal

Compound	TGI (A549 NSCLC)	TGI (HL-60(TB) leukemia)	TGI (KM12 colon)	TGI (M14 melanoma)	TGI (NCI-H226 lung)	TGI (NCI-H460 lung)	TGI (NCI/ADR-RES ovarian)	TGI (OVCAR-8 ovarian)	TGI (SK-MEL-2 melanoma)	TGI (RXF 393 renal)
COc1ccc(/C=C/C(=O)c2ccc(Br)cc2)cc1	> 100 µM	> 100 µM	> 100 µM	> 100 µM	> 100 µM	> 100 µM	> 100 µM	> 100 µM	> 100 µM	–
C=C(C)CCC1C=[N+]([O-])OC(C)(C)C1(C)C (stereo not drawn)	> 100 µM	73.8 µM	> 100 µM	> 100 µM	> 100 µM	> 100 µM	> 100 µM	> 100 µM	–	> 100 µM
Cc1ccc(S(=O)(=O)N(CCNC(=O)c2cccc(O)c2O)c2cc3c4c(c2)Oc2cccc5c2C4(C)c2c(cccc2O3)O5)cc1	> 100 µM	–	> 100 µM	> 100 µM	65.8 µM	> 100 µM	58 µM	> 100 µM	> 100 µM	–
CC#COS(=O)(=O)c1ccc(C)cc1	> 100 µM	59.8 µM	> 100 µM	> 100 µM	> 100 µM	> 100 µM	–	> 100 µM	> 100 µM	–
COc1ccc(C2=Nc3ccccc3N=C(SC)C2)cc1	> 100 µM	43 µM	> 100 µM	> 100 µM	> 100 µM	71.9 µM	–	> 100 µM	> 100 µM	> 100 µM
CC12CCc3ccccc3C1=NNC(=O)C2 (stereo not drawn)	> 100 µM	> 100 µM	> 100 µM	> 100 µM	> 100 µM	> 100 µM	–	> 100 µM	> 100 µM	> 100 µM
CCCCCCCCCCCCCS(=O)(=O)NCC(N)=O	> 100 µM	> 100 µM	> 100 µM	> 100 µM	> 100 µM	> 100 µM	–	> 100 µM	> 100 µM	> 100 µM
O=C1[C@@H]2C(c3ccccc3[N+](=O)[O-])=NO[C@@H]2C(=O)N1c1ccc(Cc2ccc(N3C(=O)[C@H]4C(c5ccccc5[N+](=O)[O-])=NO[C@H]4C3=O)cc2)cc1	–	–	> 100 µM	> 100 µM	–	> 100 µM	–	> 100 µM	–	> 100 µM
CCOC(=O)NN(C(=O)OCC)C(C(=O)c1ccccc1)N(NC(=O)OCC)C(=O)OCC	> 100 µM	> 100 µM	> 100 µM	> 100 µM	> 100 µM	> 100 µM	> 100 µM	> 100 µM	–	> 100 µM
CC(=O)[C@@]1(c2ccccc2)CC2(CCN(C)CC2)O[C@H]1C	> 100 µM	–	> 100 µM	> 100 µM	> 100 µM	> 100 µM	> 100 µM	> 100 µM	–	> 100 µM
Cn1cc2c3ccccc3nc-2c2ccccc21	5.65 µM	4.48 µM	6.78 µM	4.4 µM	–	4.34 µM	4.24 µM	3.42 µM	3.52 µM	–
Cc1ccc(S(=O)(=O)NNS(C)(=O)=O)cc1	> 100 µM	–	> 100 µM	> 100 µM	–	> 100 µM	–	> 100 µM	> 100 µM	> 100 µM
CCCCOC(=O)NC(=O)c1cn(CCCOC(=O)CCCCCCCCC(=O)OCCCn2cc(C(=O)NC(=O)OCCCC)c(=O)n(C)c2=O)c(=O)n(C)c1=O	> 100 µM	> 100 µM	> 100 µM	> 100 µM	> 100 µM	> 100 µM	–	> 100 µM	> 100 µM	> 100 µM
COc1ccc([C@H]2CC3C(=O)N(c4ccc(OC)cc4)C(=O)C3c3[nH]c4ccccc4c32)cc1 (stereo partly drawn)	> 100 µM	–	> 100 µM	> 100 µM	> 100 µM	> 100 µM	–	> 100 µM	> 100 µM	–
O=S(=O)(c1ccccc1)c1ccc(-c2nc(-c3ccc4c(c3)Sc3ccccc3S4)cs2)cc1	> 100 µM	> 100 µM	> 100 µM	> 100 µM	> 100 µM	> 100 µM	–	> 100 µM	–	35.3 µM
CCN(CC)CCC1CCCCN1CC(=O)N1c2cc(Cl)ccc2NC(=O)CC1C (stereo not drawn)	> 100 µM	> 100 µM	> 100 µM	> 100 µM	> 100 µM	> 100 µM	–	> 100 µM	> 100 µM	> 100 µM
Brc1ccc(-c2cc3c(cc2C2SCCS2)OCO3)cc1	> 100 µM	> 100 µM	> 100 µM	> 100 µM	40.3 µM	> 100 µM	–	> 100 µM	> 100 µM	77.2 µM
Fc1ccc(C(OCCN2CCC3CCC(C2)N3C/C=C/c2cccs2)c2ccc(F)cc2)cc1 (stereo not drawn)	24.3 µM	–	19.7 µM	14.8 µM	22.1 µM	15.4 µM	19.7 µM	15.8 µM	24.1 µM	16.3 µM
CCN(CC)c1c(C)nnn1C1OC(COC(C)=O)C(OC(C)=O)C(OC(C)=O)C1OC(C)=O (stereo not drawn)	> 100 µM	> 100 µM	> 100 µM	> 100 µM	> 100 µM	> 100 µM	–	> 100 µM	–	–
O=C1CN(c2cccc(C(F)(F)F)c2)C(=O)CN1CCN1CC(=O)N(c2cccc(C(F)(F)F)c2)CC1=O	> 100 µM	> 100 µM	> 100 µM	> 100 µM	–	> 100 µM	> 100 µM	> 100 µM	–	–
CSC(C1c2ccccc2N(C)c2[nH]c(=O)n(C)c(=O)c21)S(=O)(=O)c1ccc(C)cc1 (stereo not drawn)	> 100 µM	> 100 µM	–	–	> 100 µM	–	–	> 100 µM	> 100 µM	–
COc1ccc2nc3ccccc3c(NCCCCN(CCCl)CCCl)c2c1	6.25 µM	–	3.48 µM	–	9.65 µM	0.69 µM	5.4 µM	0.625 µM	2.06 µM	0.289 µM
CCO/C(O)=c1/s/c(=C(\C#N)c2nc3ccccc3[nH]2)n(-c2ccccc2)c1=N	> 100 µM	> 100 µM	–	> 100 µM	> 100 µM	> 100 µM	–	> 100 µM	> 100 µM	> 100 µM
Cc1cc(C)n(-c2nc(C)c(CCO)c(=O)[nH]2)n1	> 100 µM	> 100 µM	> 100 µM	> 100 µM	> 100 µM	> 100 µM	> 100 µM	> 100 µM	–	> 100 µM
